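Compound exposure: 48 hours, 5 concentrations, 96-well plates. GI50 marks 50% less growth.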 Calls of active or inactive are those of the source. Cut-off read from the data, not from the text of the source: active = GI50 up to about 1.1 µM and inactive = higher.
Assays:
Test in all cases: DTP human tumour cell line panel, 48 h
ACHN = test system: ACHN
Malme-3M = test system: Malme-3M
HOP-62 = test system: HOP-62
BT-549 = test system: BT-549
A549 = test system: A549
MDA-N = test system: MDA-N
786-0 = test system: 786-0
SF-295 = test system: SF-295
HCT-116 = test system: HCT-116
NCI-H460 = test system: NCI-H460
DU-145 = test system: DU-145
SF-539 = test system: SF-539
SNB-19 = test system: SNB-19
RPMI-8226 = test system: RPMI-8226
KM12 = test system: KM12
SK-MEL-28 = test system: SK-MEL-28
HT-29 = test system: HT-29
T47D = test system: T47D
HOP-92 = test system: HOP-92
SNB-75 = test system: SNB-75

Measured: GI50

O=C(O)/C=c1/c2ccccc2n2nc3ccccc3c12
inactive: ACHN 23.8 µM | Malme-3M 25.2 µM | HOP-62 31.6 µM | BT-549 37.4 µM | A549 38.2 µM | MDA-N 26 µM | 786-0 38.6 µM | SF-295 30.8 µM | HCT-116 24.8 µM | NCI-H460 30.1 µM | DU-145 41.6 µM | SF-539 19.8 µM | SNB-19 31.8 µM | RPMI-8226 25.8 µM | KM12 20.4 µM | SK-MEL-28 26 µM | HT-29 39.3 µM | T47D 55.5 µM

CCC1C(C#N)=C(N)OC2=C1C(=O)CC(C)(C)C2 (stereo not drawn)
inactive: ACHN > 100 µM | Malme-3M > 100 µM | HOP-62 > 100 µM | HOP-92 > 100 µM | BT-549 > 100 µM | A549 > 100 µM | MDA-N > 100 µM | 786-0 > 100 µM | SF-295 > 100 µM | HCT-116 > 100 µM | NCI-H460 > 100 µM | DU-145 > 100 µM | SF-539 > 100 µM | SNB-19 > 100 µM | RPMI-8226 > 100 µM | KM12 > 100 µM | SK-MEL-28 > 100 µM | HT-29 > 100 µM

O=c1[nH]nc(Cc2ccccc2)n1/N=C/c1ccc(/C=N/n2c(Cc3ccccc3)n[nH]c2=O)cc1
inactive: ACHN > 100 µM | Malme-3M > 100 µM | HOP-62 57.5 µM | BT-549 > 100 µM | A549 > 100 µM | MDA-N > 100 µM | 786-0 > 100 µM | SF-295 77.3 µM | HCT-116 > 100 µM | NCI-H460 > 100 µM | DU-145 > 100 µM | SNB-19 > 100 µM | RPMI-8226 > 100 µM | KM12 > 100 µM | SK-MEL-28 > 100 µM | HT-29 > 100 µM | T47D > 100 µM

O=c1oc2ccccc2cc1-c1cc2ccccn2c1
inactive: ACHN > 100 µM | HOP-62 > 100 µM | HOP-92 > 100 µM | BT-549 > 100 µM | A549 > 100 µM | MDA-N > 100 µM | 786-0 > 100 µM | SF-295 > 100 µM | HCT-116 > 100 µM | NCI-H460 > 100 µM | DU-145 > 100 µM | SNB-75 > 100 µM | SNB-19 > 100 µM | RPMI-8226 > 100 µM | KM12 > 100 µM | SK-MEL-28 > 100 µM | HT-29 > 100 µM

CC(=O)O[C@@H]1C(=O)N(c2ccccc2)[C@@H]1c1cc2ccccc2c2ccccc12
inactive: ACHN 29.6 µM | Malme-3M 22.9 µM | HOP-62 29.6 µM | HOP-92 20.8 µM | A549 21.5 µM | MDA-N 43 µM | 786-0 42.2 µM | SF-295 38 µM | HCT-116 27.5 µM | NCI-H460 31.4 µM | DU-145 40.8 µM | SF-539 25.4 µM | SNB-19 73.3 µM | RPMI-8226 21.3 µM | KM12 20.3 µM | SK-MEL-28 56 µM | HT-29 29 µM | T47D 18.7 µM

CC(=O)Nc1ccc2c(C)c3c4ccccc4n(C)c3nc2n1
inactive: ACHN 8.55 µM | HOP-62 14.3 µM | BT-549 31.3 µM | A549 16 µM | MDA-N 17.1 µM | 786-0 8.17 µM | SF-295 19.9 µM | HCT-116 7.1 µM | NCI-H460 2.92 µM | DU-145 21 µM | SF-539 29.3 µM | SNB-75 14.4 µM | SNB-19 39.1 µM | KM12 11.9 µM | HT-29 14.8 µM | T47D 18.4 µM

O=C(/C=C/c1ccc[nH]1)c1ccccc1
inactive: ACHN > 100 µM | Malme-3M > 100 µM | HOP-62 > 100 µM | HOP-92 56.2 µM | A549 > 100 µM | 786-0 > 100 µM | SF-295 > 100 µM | HCT-116 > 100 µM | NCI-H460 > 100 µM | SF-539 > 100 µM | SNB-75 29.6 µM | SNB-19 > 100 µM | RPMI-8226 95.9 µM | KM12 > 100 µM | SK-MEL-28 > 100 µM | HT-29 > 100 µM

COc1cc(CNC(=S)CCCCCCCCCCC(C)C)ccc1O
inactive: ACHN 58.7 µM | Malme-3M > 100 µM | HOP-62 58.6 µM | HOP-92 24.2 µM | A549 53 µM | 786-0 63.5 µM | SF-295 43.7 µM | HCT-116 31.6 µM | NCI-H460 42.9 µM | DU-145 > 100 µM | SF-539 > 100 µM | SNB-75 > 100 µM | SNB-19 72.6 µM | RPMI-8226 37.2 µM | KM12 28.4 µM | SK-MEL-28 > 100 µM | HT-29 36.7 µM | T47D 27 µM

Source: ChEMBL document CHEMBL1201862, “PubChem BioAssay data set” (2004)
